Source: ChEMBL document CHEMBL4342436, “Artemisia: a promising plant for the treatment of cancer” (Bioorg Med Chem, 2020)
Converted amounts (≈) assume the structure as drawn.

Experiments:
[1] = system: P388; assay: Cytotoxicity against mouse P388 cells assessed as reduction in cell viability after 48 hrs by MTT assay; assay type: functional, cell-based; conditions: P388, 48 h
[2] = system: HT-29; assay: Cytotoxicity against human HT-29 cells assessed as reduction in cell viability after 48 hrs by MTT assay; assay type: functional, cell-based; conditions: HT-29, 48 h
[3] = system: L1210; assay: Cytotoxicity against mouse L1210 cells assessed as reduction in cell viability after 48 hrs by MTT assay; assay type: functional, cell-based; conditions: L1210, 48 h
[4] = system: A549; assay: Cytotoxicity against human A549 cells assessed as reduction in cell viability after 48 hrs by MTT assay; assay type: functional, cell-based; conditions: A549, 48 h
[5] = system: XF498; assay: Cytotoxicity against human XF498 cells by SRB assay; assay type: functional, cell-based
[6] = system: SK-MEL-2; assay: Cytotoxicity against human SK-MEL-2 cells by SRB assay; assay type: functional, cell-based
[7] = system: HCT-15; assay: Cytotoxicity against human HCT15 cells by SRB assay; assay type: functional, cell-based
[8] = system: SK-OV-3; assay: Cytotoxicity against human SKOV3 cells by SRB assay; assay type: functional, cell-based
[9] = system: A549; assay: Cytotoxicity against human A549 cells by SRB assay; assay type: functional, cell-based
[10] = Antioxidant activity assessed as ONOO scavenging activity; assay type: functional
[11] = Cytotoxicity against human YD-10B cells assessed as reduction in cell viability after 48 hr by MTT asssay; assay type: functional, cell-based
[12] = system: HeLa; assay: Cytotoxicity against human HeLa cells assessed as reduction in cell viability incubated for 48 hrs by MTT assay; assay type: functional, cell-based
[13] = system: MCF7; assay: Cytotoxicity against human MCF7 cells assessed as reduction in cell viability incubated for 48 hrs by MTT assay; assay type: functional, cell-based; conditions: MCF7, 48 h
[14] = system: SW-620; assay: Antitumour activity against human SW620 cells xenografted in mouse assessed as inhibition of tumour growth at 60 mg/kg relative to control; assay type: functional; conditions: read-out: TGI
[15] = system: Bel-7402; assay: Cytotoxicity against human Bel7402 cells by MTT assay; assay type: functional, cell-based
[16] = system: A549; assay: Cytotoxicity against human A549 cells by MTT assay; assay type: functional, cell-based
[17] = system: HL-60; assay: Antiproliferative activity against human HL60 cells assessed as reduction in cell viability after 3 days by XTT assay; assay type: functional, cell-based; conditions: HL-60, 72 h
[18] = system: HeLa; assay: Cytotoxicity against human HeLa cells assessed as reduction in cell viability after 24 hrs by MTT assay; assay type: functional, cell-based
[19] = system: HeLa; assay: Cytotoxicity against human HeLa cells after 72 hrs by MTT assay; assay type: functional, cell-based
[20] = system: MCF7; assay: Cytotoxicity against human MCF7 cells after 72 hrs by MTT assay; assay type: functional, cell-based; conditions: MCF7, 72 h
[21] = system: A2780; assay: Cytotoxicity against human A2780 cells after 72 hrs by MTT assay; assay type: functional, cell-based; conditions: A2780, 72 h
[22] = system: A-431; assay: Cytotoxicity against human A431 cells after 72 hrs by MTT assay; assay type: functional, cell-based; conditions: A-431, 72 h
[23] = system: HepG2; assay: Cytotoxicity against human HepG2 cells after 72 hrs by MTT assay; assay type: functional, cell-based; conditions: HepG2, 72 h
[24] = Cytotoxicity against mouse S17 cells after 72 hrs by MTT assay; assay type: functional, cell-based; conditions: S17, 72 h
[25] = system: SH-SY5Y; assay: Cytotoxicity against human SH-SY5Y cells after 72 hrs by MTT assay; assay type: functional, cell-based
[26] = system: HeLa; assay: Cytotoxicity against human HeLa cells after 48 hrs by MTT assay; assay type: functional, cell-based
[27] = system: A549; assay: Cytotoxicity against human A549 cells after 48 hrs by MTT assay; assay type: functional, cell-based; conditions: A549, 48 h
[28] = system: U-937; assay: Cytotoxicity against human U937 cells after 48 hrs by MTT assay; assay type: functional, cell-based; conditions: U-937, 48 h
[29] = system: COLO 205; assay: Antiproliferative activity against human COLO205 cells assessed as reduction in cell viability after 48 hrs by MTT assay; assay type: functional, cell-based; conditions: COLO 205, 48 h
[30] = system: MCF7; assay: Antiproliferative activity against human MCF7 cells assessed as reduction in cell viability after 48 hrs by MTT assay; assay type: functional, cell-based; conditions: MCF7, 48 h
[31] = system: BHY; assay: Antiproliferative activity against human BHY cells assessed as reduction in cell viability after 48 hrs by MTT assay; assay type: functional, cell-based
[32] = system: A549; assay: Antiproliferative activity against human A549 cells assessed as reduction in cell viability after 48 hrs by MTT assay; assay type: functional, cell-based; conditions: A549, 48 h
[33] = system: MIA PaCa-2; assay: Antiproliferative activity against human MIAPaCa2 cells assessed as reduction in cell viability after 48 hrs by MTT assay; assay type: functional, cell-based; conditions: MIA PaCa-2, 48 h

C[C@H]1[C@@H](O[C@H](C#N)c2ccc(Br)cc2)O[C@@H]2O[C@@]3(C)CC[C@H]4[C@H](C)CC[C@@H]1[C@@]24OO3 showed an IC50 [1] of 0.01 to 0.49 µM, an IC50 [2] of 0.01 to 0.49 µM and an IC50 [3] of 0.01 to 0.49 µM. The IC50 [4] was 0.01 to 0.49 µM.

Work on COc1ccc(-c2cc(=O)c3c(O)cc(O)cc3o2)cc1 [ACACETIN] yielded an IC50 [5] of 0.4 to 26.8 µg/mL (≈ 1.41 to 94.3 µM), an IC50 [6] of 0.4 to 26.8 µg/mL (≈ 1.41 to 94.3 µM) and an IC50 [7] of 0.4 to 26.8 µg/mL (≈ 1.41 to 94.3 µM). It also gave an IC50 [8] of 0.4 to 26.8 µg/mL (≈ 1.41 to 94.3 µM) and an IC50 [9] of 0.4 to 26.8 µg/mL (≈ 1.41 to 94.3 µM).

In the case of COc1cc2ccc(=O)oc2cc1O [SCOPOLETIN], the IC50 [10] is reported as 1.03 µM.

With CC(=O)O[C@H]1C(=O)[C@@]2(C)[C@H]([C@H](OC(=O)c3ccccc3)[C@]3(O)C[C@H](OC(=O)[C@H](O)[C@@H](NC(=O)c4ccccc4)c4ccccc4)C(C)=C1C3(C)C)[C@]1(OC(C)=O)CO[C@@H]1C[C@@H]2O [PACLITAXEL] the IC50 [11] was 13.1 µM.

Work on O=C(/C=C/c1ccc(O)c(O)c1)O[C@@H]1C[C@](O)(C(=O)O)C[C@@H](O)[C@H]1O [CHLOROGENIC ACID] yielded an IC50 [10] of 0.52 µM.

CC1=CC(=O)C2=C(C)CC[C@@H]3[C@H](OC(=O)[C@H]3C)[C@@H]12 [DESACETOXYMATRICARIN] showed an IC50 [5] of 0.4 to 26.8 µg/mL (≈ 1.62 to 109 µM), an IC50 [6] of 0.4 to 26.8 µg/mL (≈ 1.62 to 109 µM) and an IC50 [7] of 0.4 to 26.8 µg/mL (≈ 1.62 to 109 µM). It also gave an IC50 [8] of 0.4 to 26.8 µg/mL (≈ 1.62 to 109 µM) and an IC50 [9] of 0.4 to 26.8 µg/mL (≈ 1.62 to 109 µM).

With COc1ccc(-c2cc(=O)c3c(O)c(OC)c(OC)cc3o2)cc1OC the IC50 [12] was 8.1 to 63.2 µM and the IC50 [13] was 10.3 to 91.9 µM.

COc1cc(-c2cc(=O)c3c(O)c(O)c(OC)cc3o2)ccc1O showed an inhibition in vivo at 60 mg/kg [14] of 14.6%.

For CC(C)=CCC[C@H](C)[C@H]1C[C@H]2OO[C@@H]1C=C2C, the IC50 [5] was 0.2 to 5.43 µg/mL (≈ 0.846 to 23 µM), the IC50 [6] was 0.2 to 5.43 µg/mL (≈ 0.846 to 23 µM) and the IC50 [7] was 0.2 to 5.43 µg/mL (≈ 0.846 to 23 µM). For the same compound, the IC50 [8] was 0.2 to 5.43 µg/mL (≈ 0.846 to 23 µM) and the IC50 [9] was 0.2 to 5.43 µg/mL (≈ 0.846 to 23 µM).

Compound C=C1C(=O)O[C@H]2[C@H]1[C@@H](OC(C)=O)C[C@@](C)(O)[C@@]13O[C@@H]1[C@@H](Cl)[C@](C)(O)[C@H]23 has an IC50 [15] of 3.3 to 6 µM and an IC50 [16] of 3.3 to 6 µM.

For COc1cc2ccc(=O)oc2cc1OC [SCOPARONE], the IC50 [17] was 1.1 to 40.7 µg/mL (≈ 5.33 to 197 µM).

For CC#CC#CCc1ccccc1, the IC50 [17] was 1.1 to 40.7 µg/mL (≈ 7.13 to 264 µM).

For C=C1C(=O)O[C@@H]2C[C@@]3(C)CCCC(=C)[C@@H]3C[C@H]12 [ISOALANTOLACTONE], the IC50 [18] was 8.15 µM.

COc1cc(-c2cc(=O)c3c(O)c(OC)c(OC)cc3o2)ccc1O [CIRSILENEOL] showed an IC50 [19] of 33 to 75 µg/mL (≈ 95.8 to 218 µM), an IC50 [20] of 33 to 75 µg/mL (≈ 95.8 to 218 µM) and an IC50 [21] of 33 to 75 µg/mL (≈ 95.8 to 218 µM). The IC50 [22] was 33 to 75 µg/mL (≈ 95.8 to 218 µM).

Compound COc1ccc(-c2oc3cc(OC)c(OC)c(O)c3c(=O)c2OC)cc1OC [ARTEMETIN] has an IC50 [23] of 229 to 233 µM, an IC50 [24] of 229 to 233 µM and an IC50 [25] of 229 to 233 µM.

C=C1C(=O)O[C@H]2[C@H]1[C@@H](OC(=O)C(C)C)CC(C)=C1C[C@@H]3O[C@]3(C)[C@@H]12 gave an IC50 [26] of 16 to 43.5 µg/mL (≈ 48.1 to 131 µM), an IC50 [27] of 16 to 43.5 µg/mL (≈ 48.1 to 131 µM) and an IC50 [28] of 16 to 43.5 µg/mL (≈ 48.1 to 131 µM).

Work on COc1ccc(-c2cc(=O)c3c(O)c(O)c(OC)cc3o2)cc1OC yielded an inhibition in vivo at 60 mg/kg [14] of 44.6%.

C=C1C(=O)O[C@H](C2=C(C)[C@@H](OC)CC2=O)[C@H]1CCC(C)=O showed an IC50 [19] of 33 to 75 µg/mL (≈ 113 to 257 µM), an IC50 [20] of 33 to 75 µg/mL (≈ 113 to 257 µM) and an IC50 [21] of 33 to 75 µg/mL (≈ 113 to 257 µM). The IC50 [22] was 33 to 75 µg/mL (≈ 113 to 257 µM).

With C[C@H]1[C@@H](CCNC(=O)CC[C@H](NC(=O)CC[C@H]2O[C@@H]3O[C@@]4(C)CC[C@H]5[C@H](C)CC[C@@H]([C@H]2C)[C@@]35OO4)C(=O)NCC[C@H]2O[C@@H]3O[C@@]4(C)CC[C@H]5[C@H](C)CC[C@@H]([C@H]2C)[C@@]35OO4)O[C@@H]2O[C@@]3(C)CC[C@H]4[C@H](C)CC[C@@H]1[C@@]24OO3 the IC50 [11] was 6 µM.

Work on C=C(C)[C@@H]1CC[C@]2(C)CC[C@]3(C)[C@H](CC[C@@H]4[C@@]5(C)CC[C@H](O)C(C)(C)[C@@H]5CC[C@]43C)[C@@H]12 [LUPEOL] yielded an IC50 [29] of 25.2 to 88.1 µM, an IC50 [30] of 25.2 to 88.1 µM and an IC50 [31] of 25.2 to 88.1 µM. The IC50 [32] was 25.2 to 88.1 µM and the IC50 [33] was 25.2 to 88.1 µM.

With C=C1C(=O)O[C@H]2[C@H]1[C@@H](OC(=O)/C(C)=C\C)CC(C)=C1C[C@@H]3O[C@]3(C)[C@@H]12 the IC50 [26] was 16 to 43.5 µg/mL (≈ 46.5 to 126 µM), the IC50 [27] was 16 to 43.5 µg/mL (≈ 46.5 to 126 µM) and the IC50 [28] was 16 to 43.5 µg/mL (≈ 46.5 to 126 µM).
